# Data from article PMC10920779, “Targeting P2Y14R protects against necroptosis of intestinal epithelial cells through PKA/CREB/RIPK1 axis in ulcerative colitis” (Nature Communications, 2024).
# “And” between values parts separate entries of the source, which are not always exact repeats. Equal values may be shown once.
# Columns and labels:
# intestinal organoids = assay: TSZ-induced necroptosis in intestinal organoids (PI staining); assay type: cell-based, mouse; conditions: P2Y14Rfl/fl organoids, UDPG+TSZ
# Procedure: Crypts were released from the murine small intestine by incubation for 30 min at 4°C in PBS containing 2 mM EDTA. Isolated crypts were counted and pelleted. […] Organoid media were changed every 3 days. […] Dead cell imaging in live organoids was performed on the fluorescence microscope (BX53, Olympus Optical), and analyzed by image j.
# HT-29 cells = assay: TSZ-induced necroptosis in HT-29 cells (CCK8 viability, PI/Hoechst, H&E staining); assay type: cell-based, human
# Procedure: (§1) Necroptosis was induced by pretreatment with TNF‐α (20 ng·mL^−1) plus z‐VAD‐fmk (20 μM) and Smac mimetic (BV6, 2 μM) for 8 h, then stained cells with hematoxylin/eosin. For PI/Hoechst staining, cells were stained with PI and Hoechst for 20 min, then photographed with a fluorescence microscope and at least 300 cells were counted. The ratio of PI positive cells (%) = (PI positive cells) / (Hoechst positive cells) × 100%. For cell viability assay, CCK8 was added to the well and incubated for 1 − 2 h and then OD450 was measured using a multi-mode microplate reader (Cytation5, BioTek).
# HCT-116 cells = assay: TSZ-induced necroptosis in HCT-116 cells (PI/Hoechst staining); assay type: cell-based, human
# Procedure: as §1
# MLKL phosphorylation [1] = assay: Immunoblotting of p-MLKL/MLKL in HT-29 cells; assay type: cell-based, human; conditions: P2Y14R-OE cells + TSZ, replicates, supplement Figure 2e
# Procedure: (§2) Tissues and cells were lysed using RIPA lysis buffer (Beyotime Biotechnology) containing protease and phosphatase inhibitor, homogenated, and centrifuged. The protein concentration was determined by BCA protein assay (Beyotime Biotechnology). Equal concentrations of proteins were separated in a 10% SDS-PAGE and transferred to PVDF membrane. […] Densitometry was quantified using ImageJ software.
# Ripk1 mRNA [2] = assay: RT-PCR of Ripk1 mRNA in HT-29 cells; assay type: cell-based, human
# Text: (§3) Total RNA was extracted from cells or colonic tissues using Trizol (Thermo) under the manufacturer’s instructions. First strand cDNA was synthesized using the PrimeScript RT Reagent Kit (480, Abm). SYBR Green Master Mix reagents (Q331-02, Vazyme) and primer mixtures (Table S1) were used for the real-time PCR. […] The procedure was as described in the kit provided by the manufacturer. Briefly, isolated IECs were fixed by 1% formaldehyde, and fragmented by sonication. CREB was then used for immunoprecipitation. After washing and reverse-crosslinking, the precipitated DNA was amplified by primers and quantified by the qPCR. Primer sequences can be found in Supplementary Table 1.
# [3] = system: PKA and CREB phosphorylation; assay: Immunoblotting of p-PKA and p-CREB in HT-29 cells; assay type: cell-based, human
# Procedure: as §2
# MLKL phosphorylation [4] = assay: Immunoblotting of p-MLKL/MLKL in HCT-116 cells; assay type: cell-based, human; conditions: P2Y14R-OE cells + TSZ, replicates, supplement Figure 2g
# Procedure: as §2
# Ripk1 mRNA [5] = assay: RT-PCR of Ripk1 mRNA in intestinal epithelial cells of experimental colitis mice; assay type: in vivo, mouse; conditions: Figure 7i, group TSZ+UDPG+Nec-1s
# Procedure: Colon tissues derived from the euthanized by carbon dioxide inhalation mice were opened longitudinally and washed in pre-cooling PBS for three times. Then, the tissues were cut into 3 mm^2 pieces and incubated with 5 mM EDTA solution in PBS on a constant temperature shaker at 200 rpm for 25 min at 37°C. Then, let it stand at room temperature for 30 seconds and collected the supernatant. Next, repeated the above process once. Supernatants from the above step were combined and centrifuged at 500 g for 8 min. Abandon the supernatants and obtain IECs.
# as §3
# [6] = system: CREB binding to Ripk1 promoter; assay: ChIP-qPCR with anti-CREB on Ripk1 gene promoter in HT-29 cells; assay type: cell-based, human
# Text: as §3
# [7] = system: PKA and CREB phosphorylation; assay: Immunoblotting of p-PKA and p-CREB in HCT-116 cells; assay type: cell-based, human
# Procedure: as §2
# [8] = system: CREB binding to Ripk1 promoter; assay: ChIP-qPCR with anti-CREB on Ripk1 gene promoter in HCT-116 cells; assay type: cell-based, human
# Text: as §3
# Ripk1 mRNA [9] = assay: RT-PCR of Ripk1 mRNA in HCT-116 cells; assay type: cell-based, human
# Text: as §3
# [10] = HT-29 cells, UDPG+TSZ, pre-treatment
# [11] = HCT-116 cells, UDPG+TSZ, pre-treatment
compound,measurement,setting,value
CN1C(=O)NC(Cc2c[nH]c3c(Cl)cccc23)C1=O (centres unmarked) [Nec-1s],UDPG-increased TSZ necroptosis in organoids,intestinal organoids,remarkably attenuated this damage
same,UDP-glucose derived damage on TSZ-stimulated necroptosis,"HT-29 cells; HT-29 cells, UDPG+TSZ",remarkably attenuated the UDP-glucose derived damage on TSZ-stimulated necroptosis
same,Cell viability,"HT-29 cells; P2Y14R-OE cells + TSZ, replicates",99.7919 and 100.274 and 99.3783 and 100.966 and 100.911 and 101.005
same,PI positive (%),"HT-29 cells; P2Y14R-OE cells + TSZ, replicates, supplement Figure 2c",6.21% and 5.544% and 2.585%
same,TSZ-stimulated necroptosis,"HT-29 cells; P2Y14R-overexpression HT-29 cells, 1h pre-treatment, TSZ 8 h",alleviated TSZ stimulated IECs necroptosis
same,UDP-glucose derived damage on TSZ-stimulated necroptosis,"HCT-116 cells; HCT-116 cells, UDPG+TSZ",remarkably attenuated the UDP-glucose derived damage on TSZ-stimulated necroptosis
same,PI positive (%),"HCT-116 cells; P2Y14R-OE cells + TSZ, replicates, supplement Figure 2f",1.2% and 1.6% and 3.0%
same,TSZ-stimulated necroptosis,"HCT-116 cells; P2Y14R-overexpression HCT-116 cells, pre-treated",alleviated this phenomenon
same,P-MLKL/MLKL,MLKL phosphorylation [1],2.79 and 2.6518 and 3.608 and 1.739 and 2.51
same,Ripk1 transcript (mRNA),Ripk1 mRNA [2]; [10],showed no effect
same,"Expression of Ripk1 in HT-29 cell, 2^△△CT",Ripk1 mRNA [2]; added to TSZ+UDPG,3.657 and 4.786 and 3.641 and 3.399 and 4.214 and 3.302
same,Phosphorylation level of PKA/CREB pathway,[3]; UDPG+TSZ,did not affect the phosphorylation level of PKA/CREB pathway
same,P-CREB/CREB,"[3]; added to UDPG+TSZ, Figure 5k",0.2673 and 0.2178 and 0.2551 and 0.2611 and 0.3759
same,P-MLKL/MLKL,MLKL phosphorylation [4],2.175 and 2.507 and 2.289 and 2.573 and 2.48
same,"Expression of Ripk1 in IEC, 2^△△CT",Ripk1 mRNA [5],1.11 and 1.102 and 0.9517 and 0.9698 and 1.16
same,CREB binding Ripk1 promoter,"[6]; Figure 5m, added to TSZ+UDPG",4.90% and 6.57% and 1.83%
same,Decrease of binding between CREB and Ripk1 promoter (ChIP),[6]; [10],did not affect this process
same,P-PKA/PKA,"[7]; Figure 5n, second block, added to UDPG+TSZ",0.2244 and 0.2706 and 0.2071 and 0.4048 and 0.2633
same,Phosphorylation level of PKA/CREB pathway,[7]; UDPG+TSZ,did not affect the phosphorylation level of PKA/CREB pathway
same,CREB binding Ripk1 promoter,"[8]; Figure 5p, added to TSZ+UDPG",42.22% and 33.74% and 27.53%
same,Decrease of binding between CREB and Ripk1 promoter (ChIP),[8]; [11],did not affect this process
same,Ripk1 transcript (mRNA),Ripk1 mRNA [9]; [11],showed no effect
same,"Expression of Ripk1 in HCT-116 cell, 2^△△CT",Ripk1 mRNA [9]; added to TSZ+UDPG,2.77 and 2.8504 and 2.771 and 2.541 and 2.7034
